Test results from PMC5122408, “High throughput chemical library screening identifies a novel p110-δ inhibitor that potentiates the anti-myeloma effect of bortezomib” (Oncotarget, 2016).

Legend:
MM.1S myeloma cells = assay: Mouse xenograft model of myeloma; type: in vivo, mice; conditions: subcutaneous myeloma xenograft; intravenous; bortezomib 0.5 mg/kg, DT97 10 mg/kg
Method: Five week old nude mice flanks are injected subcutaneously with MM.1S myeloma cells. Tumors formed within two weeks and mice were then treated intravenously with vehicle, bortezomib, DT97 or both bortezomib and DT97.
Subcutaneous tumors were generated after injection of myeloma cells. […] Vehicle or bortezomib was administered on days 1, 4, 8 and 11. Mice were euthanized when tumors reached 2 cm^3, became ulcerated or elicited neurologic or musculoskeletal complications that limited mobility and feeding. Survival and tumor growth were evaluated from the first day of treatment. Shown is the average of replicate measurements. […] Kaplan-Meier survival curves comparison of NOD. SCID mice after subcutaneous injection of parental myeloma cells treated with vehicle, DT97, bortezomib or both.
Mice received intravenous injection of either vehicle (PBS in 10% DMSO); bortezomib (0.5 mg/kg), DT97 (10 mg/kg) or both bortezomib and DT97. Tumor volume (TV) measurements were made using a vernier caliper and calculated using the formula: TV = 0.5 (a × b^2) where a is the long diameter and b the short diameter. Mice were euthanized when tumors reached 2 cm^3, became ulcerated or elicited neurologic or musculoskeletal complications that limited mobility and feeding.
In vivo statistical tests were performed using the 2-tailed Student t test.

CLL cells = assay: XTT viability, CLL cells (DT97 vs idelalisib); type: cell-based; conditions: 1 uM, 72 h, XTT assay
p110-α = p110-α (Homo sapiens, UniProt P42336); parameters: method as in PMID 20959606; conditions: Class I PI3Ks; cited from earlier work
p110-β = p110-β (Homo sapiens, UniProt P42338); parameters: method as in PMID 20959606; conditions: Class I PI3Ks; cited from earlier work
p110-γ = p110-γ (Homo sapiens, UniProt P48736); parameters: method as in PMID 20959606; key to the marks not given beside the values; conditions: Class I PI3Ks; cited from earlier work
p110-δ = p110-δ (Homo sapiens, UniProt O00329); parameters: method as in PMID 20959606; key to the marks not given beside the values; conditions: Class I PI3Ks; cited from earlier work
PKC2-α = PKC2-α (Homo sapiens, UniProt O00443); parameters: method as in PMID 20959606; conditions: Class II PI3Ks; cited from earlier work
PKCγ = test system: PKCγ; parameters: method as in PMID 20959606; conditions: cited from earlier work
PDGFR = test system: PDGFR; parameters: method as in PMID 20959606; conditions: Other Clinically-relevant Kinases; cited from earlier work
ERBB2 = ERBB2 (Homo sapiens, UniProt P04626); parameters: method as in PMID 20959606; conditions: Other Clinically-relevant Kinases; cited from earlier work
ERBB4 = ERBB4 (Homo sapiens, UniProt Q15303); parameters: method as in PMID 20959606; conditions: Other Clinically-relevant Kinases; cited from earlier work

p110-δ, sequence (O00329 whole entry): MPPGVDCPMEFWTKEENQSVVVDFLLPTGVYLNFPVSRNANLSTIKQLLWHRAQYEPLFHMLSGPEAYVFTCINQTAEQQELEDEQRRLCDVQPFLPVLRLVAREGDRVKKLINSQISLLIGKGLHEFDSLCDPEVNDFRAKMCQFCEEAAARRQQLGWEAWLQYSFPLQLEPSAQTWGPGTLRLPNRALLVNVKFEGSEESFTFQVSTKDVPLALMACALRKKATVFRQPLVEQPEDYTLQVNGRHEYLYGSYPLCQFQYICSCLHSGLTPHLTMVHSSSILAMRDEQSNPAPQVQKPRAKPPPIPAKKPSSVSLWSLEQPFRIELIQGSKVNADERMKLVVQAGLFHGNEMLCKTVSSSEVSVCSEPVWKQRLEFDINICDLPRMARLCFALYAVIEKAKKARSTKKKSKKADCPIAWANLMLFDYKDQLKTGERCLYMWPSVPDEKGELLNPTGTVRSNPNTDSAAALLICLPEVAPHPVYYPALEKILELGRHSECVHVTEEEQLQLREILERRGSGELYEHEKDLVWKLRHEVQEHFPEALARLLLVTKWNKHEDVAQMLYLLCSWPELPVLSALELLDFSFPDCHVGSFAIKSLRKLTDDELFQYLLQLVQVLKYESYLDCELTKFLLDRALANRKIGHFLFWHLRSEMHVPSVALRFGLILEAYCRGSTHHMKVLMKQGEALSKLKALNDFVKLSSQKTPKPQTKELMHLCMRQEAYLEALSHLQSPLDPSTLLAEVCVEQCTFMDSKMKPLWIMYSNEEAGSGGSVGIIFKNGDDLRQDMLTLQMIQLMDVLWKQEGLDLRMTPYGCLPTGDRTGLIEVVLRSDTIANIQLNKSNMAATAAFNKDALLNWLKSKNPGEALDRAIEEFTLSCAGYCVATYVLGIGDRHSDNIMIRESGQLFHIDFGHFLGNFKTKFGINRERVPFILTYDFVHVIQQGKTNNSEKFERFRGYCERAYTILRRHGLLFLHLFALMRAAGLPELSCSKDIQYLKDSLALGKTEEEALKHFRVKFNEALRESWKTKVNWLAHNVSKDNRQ
p110-δ, sequence (P27986 whole entry partner): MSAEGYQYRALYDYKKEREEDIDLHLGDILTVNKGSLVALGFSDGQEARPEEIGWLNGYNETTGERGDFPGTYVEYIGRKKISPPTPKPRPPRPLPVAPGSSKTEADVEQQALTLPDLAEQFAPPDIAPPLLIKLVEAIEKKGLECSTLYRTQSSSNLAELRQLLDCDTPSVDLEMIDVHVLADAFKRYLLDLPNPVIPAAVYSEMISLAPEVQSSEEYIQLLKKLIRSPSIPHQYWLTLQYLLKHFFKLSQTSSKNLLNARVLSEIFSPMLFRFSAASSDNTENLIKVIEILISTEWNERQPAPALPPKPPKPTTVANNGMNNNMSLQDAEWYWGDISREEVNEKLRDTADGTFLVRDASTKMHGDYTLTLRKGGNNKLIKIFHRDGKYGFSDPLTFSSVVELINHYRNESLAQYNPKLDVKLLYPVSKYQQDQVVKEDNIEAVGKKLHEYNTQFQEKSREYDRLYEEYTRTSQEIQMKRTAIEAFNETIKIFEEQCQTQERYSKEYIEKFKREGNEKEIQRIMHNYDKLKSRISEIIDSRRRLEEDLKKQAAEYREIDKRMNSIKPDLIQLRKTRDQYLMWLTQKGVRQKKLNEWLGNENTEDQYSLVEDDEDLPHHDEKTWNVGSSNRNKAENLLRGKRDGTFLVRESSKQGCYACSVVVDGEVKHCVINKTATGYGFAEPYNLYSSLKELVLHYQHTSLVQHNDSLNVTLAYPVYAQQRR
p110-α, sequence (P42336 whole entry): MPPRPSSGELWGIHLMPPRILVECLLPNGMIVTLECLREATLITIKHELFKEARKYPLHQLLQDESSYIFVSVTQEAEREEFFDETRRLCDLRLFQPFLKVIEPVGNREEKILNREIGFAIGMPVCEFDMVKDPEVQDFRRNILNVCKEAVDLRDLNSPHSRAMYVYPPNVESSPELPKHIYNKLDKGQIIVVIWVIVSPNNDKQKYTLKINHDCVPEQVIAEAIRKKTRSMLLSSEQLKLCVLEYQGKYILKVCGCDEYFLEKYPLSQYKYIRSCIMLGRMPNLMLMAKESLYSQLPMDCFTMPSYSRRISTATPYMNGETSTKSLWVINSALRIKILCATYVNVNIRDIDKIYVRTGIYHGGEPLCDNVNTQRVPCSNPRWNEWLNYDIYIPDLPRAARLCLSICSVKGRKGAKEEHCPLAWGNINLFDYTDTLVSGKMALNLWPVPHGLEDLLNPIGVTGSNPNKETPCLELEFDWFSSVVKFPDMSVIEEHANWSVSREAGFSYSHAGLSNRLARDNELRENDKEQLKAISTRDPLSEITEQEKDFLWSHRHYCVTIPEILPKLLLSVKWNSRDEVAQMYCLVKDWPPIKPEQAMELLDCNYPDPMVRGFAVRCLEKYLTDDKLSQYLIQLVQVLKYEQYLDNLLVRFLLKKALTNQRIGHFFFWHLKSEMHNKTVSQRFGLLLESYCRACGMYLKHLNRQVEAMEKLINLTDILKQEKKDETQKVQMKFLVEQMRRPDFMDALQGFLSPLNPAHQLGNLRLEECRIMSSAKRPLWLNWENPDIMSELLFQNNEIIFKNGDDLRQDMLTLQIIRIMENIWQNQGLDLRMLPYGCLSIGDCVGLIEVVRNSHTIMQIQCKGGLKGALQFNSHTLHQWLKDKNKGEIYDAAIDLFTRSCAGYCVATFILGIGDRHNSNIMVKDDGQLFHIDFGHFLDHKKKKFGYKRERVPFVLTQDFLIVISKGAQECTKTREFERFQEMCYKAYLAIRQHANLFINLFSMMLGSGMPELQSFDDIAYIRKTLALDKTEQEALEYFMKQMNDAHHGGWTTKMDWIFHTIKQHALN
p110-α, sequence (P27986 whole entry partner): as the sequence (P27986 whole entry partner) above
ERBB2, sequence (P04626 23-1255): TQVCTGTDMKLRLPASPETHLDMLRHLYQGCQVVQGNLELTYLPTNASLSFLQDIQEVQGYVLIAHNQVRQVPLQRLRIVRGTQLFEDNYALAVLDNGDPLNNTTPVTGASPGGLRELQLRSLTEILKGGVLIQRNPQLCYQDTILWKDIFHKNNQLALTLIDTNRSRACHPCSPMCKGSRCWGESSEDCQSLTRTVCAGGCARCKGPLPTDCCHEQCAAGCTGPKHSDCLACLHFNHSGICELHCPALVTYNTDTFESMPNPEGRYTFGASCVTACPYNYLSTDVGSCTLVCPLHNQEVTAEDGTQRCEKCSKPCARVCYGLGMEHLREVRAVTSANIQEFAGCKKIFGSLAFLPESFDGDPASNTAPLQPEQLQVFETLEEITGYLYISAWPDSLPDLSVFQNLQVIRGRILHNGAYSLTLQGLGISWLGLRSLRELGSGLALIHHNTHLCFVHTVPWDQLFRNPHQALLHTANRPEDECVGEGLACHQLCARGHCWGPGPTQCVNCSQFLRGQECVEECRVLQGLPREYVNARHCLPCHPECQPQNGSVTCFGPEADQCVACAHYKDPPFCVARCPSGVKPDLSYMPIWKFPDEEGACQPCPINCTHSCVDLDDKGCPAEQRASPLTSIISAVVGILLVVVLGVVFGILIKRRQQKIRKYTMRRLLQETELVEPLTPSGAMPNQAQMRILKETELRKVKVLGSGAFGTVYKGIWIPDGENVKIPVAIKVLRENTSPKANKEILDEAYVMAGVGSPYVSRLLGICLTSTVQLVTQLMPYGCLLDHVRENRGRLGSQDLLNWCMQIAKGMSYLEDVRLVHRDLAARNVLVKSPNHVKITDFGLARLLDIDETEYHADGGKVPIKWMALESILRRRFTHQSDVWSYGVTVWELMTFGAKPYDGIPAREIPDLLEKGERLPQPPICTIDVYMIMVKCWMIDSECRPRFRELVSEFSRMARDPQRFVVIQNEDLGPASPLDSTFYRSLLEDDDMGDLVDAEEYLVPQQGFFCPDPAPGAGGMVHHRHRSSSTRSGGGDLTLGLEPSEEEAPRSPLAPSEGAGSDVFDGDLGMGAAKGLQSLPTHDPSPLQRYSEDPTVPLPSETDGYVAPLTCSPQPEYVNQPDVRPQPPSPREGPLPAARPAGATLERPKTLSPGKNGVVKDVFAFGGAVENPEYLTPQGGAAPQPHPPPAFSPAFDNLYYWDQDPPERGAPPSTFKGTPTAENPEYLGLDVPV

| Structure (SMILES) | overall survival (OS) (MM.1S myeloma cells) [days] | tumor growth (MM.1S myeloma cells) | viability (CLL cells) | Inhibitory profile (kinase inhibition) (p110-α) | Inhibitory profile (kinase inhibition) (p110-β) | Inhibitory profile (kinase inhibition) (p110-γ) | Inhibitory profile (kinase inhibition) (p110-δ) | Inhibitory profile (kinase inhibition) (PKC2-α) | Inhibitory profile (kinase inhibition) (PKCγ) | Inhibitory profile (kinase inhibition) (PDGFR) | Inhibitory profile (kinase inhibition) (ERBB2) | Inhibitory profile (kinase inhibition) (ERBB4) |
| --- | --- | --- | --- | --- | --- | --- | --- | --- | --- | --- | --- | --- |
| CC(C)C[C@H](NC(=O)[C@H](Cc1ccccc1)NC(=O)c1cnccn1)B(O)O [bortezomib] | 20 | dramatically reduced tumor growth |  |  |  |  |  |  |  |  |  |  |
| CC[C@H](Nc1ncnc2[nH]cnc12)c1nc2cccc(F)c2c(=O)n1-c1ccccc1 [Idelalisib, idelalisib] |  |  | more effectively reduced the viability | + | + | ++ | +++ | none | none | none | none | none |
